Where “and” joins values, the source holds several entries; their conditions need not be identical. Equal values may be shown once. Entries after “also recorded” stand apart in the source; their conditions may differ. Read-outs that look alike come from different tables or passages of the source. Marks after values point to notes of the source that are not given here.
Legend:
[1] = target: T1, MPro^1–196 (Severe acute respiratory syndrome coronavirus 2, UniProt P0DTC1); type: binding; settings: NMV: 50 µM mixtures; GC373: high concentrations; diluted to 20 µM in 5% acetic acid
T1 construct: MPro^1–196 spans residues 1–196; 6His, spacer and TEV protease cleavage site (N, cleaved yes); made in house; host or cells: E. coli BL21-DE3

[2] = target: T2, MPro^1–199 (monomeric catalytic domain) (Severe acute respiratory syndrome coronavirus 2, UniProt P0DTC1); type: binding, SARS-CoV-2
[3] = target: T2, MPro^1–199 (monomeric catalytic domain); type: binding, SARS-CoV-2; set-up: made in house; host or cells: E. coli BL21-DE3
[4] = system: MPro^M; set-up: method as in earlier work; settings: in presence of GC373; supplement numbering; cited from earlier work
[5] = target: T3, MPro^1–199 (Severe acute respiratory syndrome coronavirus 2, UniProt P0DTC1); set-up: species or system SARS-CoV-2
T3 construct: made in house; host or cells: E. coli BL21-DE3

[6] = target: T4, MPro^10–306 (Severe acute respiratory syndrome coronavirus 2, UniProt P0DTC1); set-up: species or system SARS-CoV-2
T4 construct: MPro^10–306 spans the region 10–306 of MPro followed by GP-6His; GP-6His (C, cleaved yes); made in house; host or cells: E. coli BL21-DE3

[7] = target: T1, MPro^1–196; type: binding, SARS-CoV-2
[8] = target: T5, MPro^WT (Severe acute respiratory syndrome coronavirus 2, UniProt P0DTC1); type: binding; settings: protein with 2x inhibitor, diluted to 20 µM in 5% acetic acid
T5 construct: The full-length wild-type (MPro^WT) was expressed and purified; made in house; host or cells: E. coli BL21-DE3

[9] = target: T5, MPro^WT; test: Monomer-dimer equilibrium of MPro^WT in the presence of inhibitor; set-up: species or system SARS-CoV-2; settings: predicted because of thermodynamic stabilization of the dimer upon inhibitor binding
Description: Enzyme kinetics were carried out as described previously in reference 1. ^(a)Calculated from Lineweaver-Burk plot. ^(b)Calculated from plot of v vs [E].

[10] = system: MPro^M (full-length monomeric double mutant E290A, R298A); settings: ITC, cited from earlier work
[11] = target: T3, MPro^1–199; type: binding; settings: for protein-inhibitor adduct in mass spectra: NMV: 50 µM mixtures, GC373: high concentrations, diluted to 20 µM in 5% acetic acid
[12] = target: T1, MPro^1–196; set-up: species or system SARS-CoV-2
[13] = target: T4, MPro^10–306; type: binding, SARS-CoV-2
[14] = target: T3, MPro^1–199; type: biochemical, SARS-CoV-2
[15] = target: T4, MPro^10–306; type: binding; settings: 50 µM mixtures, diluted to 20 µM in 5% acetic acid

SMILES	protein-inhibitor adduct in mass spectra [1]	N [3]	ΔG [3] [kcal/mol]	ΔH [3] [kcal/mol]	ΔS [3] [cal/mol/K]	Kdimer.app [5] [µM]	apparent Kdimers [5]	dimer contribution (in monomer units) [5] [%]	faster sedimenting peak, share of signal [5]	Kdimer.app [6]	N [7]	ΔG [7] [kcal/mol]	ΔH [7] [kcal/mol]	ΔS [7] [cal/mol/K]	protein-inhibitor adduct in mass spectra [8]	Kdimer.app [9]	protein-inhibitor adduct in mass spectra [11]	Kdimer.app [12] [µM]	also measured
CC(C)C[C@H](NC(=O)OCc1ccccc1)C(=O)N[C@H](C=O)C[C@@H]1CCNC1=O [GC373]	only the molecular ions of the unmodified protein	0.9 ± 0.03	-6.2	-2.4 ± 0.1	12.7	1200 ± 200	more than 175 µM	20	about 14%	>>1200 µM	0.88 ± 0.09	-6	-1.48 ± 0.24	15	not observed	≤2^(d) µM	only the molecular ions of the unmodified protein	>1200	fold increase in Kd (weaker binding) relative to MPro^WT [2]: 200 to 300 fold; net ΔG difference relative to MPro^WT [2]: about 3 kcal/mol; Kd ([2]; read-out: Kd range): 32 to 45 µM; Kd ([3]; read-out: Kd = Ki): 32 ± 5 µM; Kdimer.app [4]: 6.2^(e^) µM; Kd ([7]; read-out: Kd = Ki): 45 ± 20 µM; N [10]: 1.07 ± 0.02; ΔG [10]: -7.2 kcal/mol; ΔH [10]: -6.0 ± 0.2 kcal/mol; ΔS [10]: 3.9 cal/mol/K; Kd ([10]; read-out: Kd = Ki): 6.2 µM and 6.13 µM; dimer formation in SV-AUC [12]: no dimer was observed; N [13]: 0.54 ± 0.03; ΔG [13]: -6 kcal/mol; ΔH [13]: -1.38 ± 0.1 kcal/mol; ΔS [13]: 15.3 cal/mol/K; Kd ([13]; read-out: Kd = Ki): 44 ± 8 µM
CC(C)(C)[C@H](NC(=O)C(F)(F)F)C(=O)N1C[C@H]2[C@@H]([C@H]1C(=O)N[C@H](C#N)C[C@@H]1CCNC1=O)C2(C)C [NMV, nirmatrelvir]	adducts were observed	0.97 ± 0.04	-6.5	-3.9 ± 0.1	8.8	180 ± 0.01	more than 175 µM	52	68%	>510 µM	1.05 ± 0.03	-6.7	-1.8 ± 0.1	16.3	nearly equal distribution of MPro^WT and the MPro^WT-NMV adduct	≤2^(d) µM	adducts were observed	510 ± 0.05	slower sedimenting (2.31S) species, share of integrated signal [5]: 32%; dimer formation in SV-AUC [6]: no detectable dimer formation; stability of protein-adducts ([11]; 20 µM in acetic acid at ambient temperature (Figs. 7d and S10b)): stable for days; dimer contribution (in monomer units) [12]: 33%; catalytic activity with the FRET substrate upon addition of inhibitor [14]: inhibited; protein-inhibitor adduct in mass spectra [15]: very little binding; also recorded: adducts were observed

— publication PMC9481597 (Communications Biology, 2022)
